Laboratory results reported in patent US4500712A, “Ergoline derivatives” (Farmitalia Carlo Erba S.p.A., priority 1981, dated 1985).

Key:
gastric secretion = experiment: Gastric antisecretory activity in pylorus-ligated rats (Shay et al.); type: in vivo, Sprague-Dawley male rats; settings: 4 h; rat, intraduodenal, at the time of ligature; read-out: Antisecretory activity (ED50, mg/kg i.d.)
Protocol: According to this method the tested compounds were injected intraduodenally at the time of ligature. Six Sprague-Dawley male rats (110-130 g) were used for each group. Twenty-four hours before the test, the rats were deprived of food but the water supply was maintained. On the day of the operation, the pylorus was ligated under light ether anaesthesia. Four hours after the ligature, the rats were sacrificed. The stomach secretion was collected and centrifuged at 3500 r.p.m. for 10 minutes and the volume, less sediment, was determined. The amount of free hydrochloric acid in the gastric juice was determined by titration against 0.01N sodium hydroxide, to an end point of pH 7.

restraint ulcers = experiment: Inhibition of restraint ulcers in rats (Bonfils et al.); type: in vivo, Sprague-Dawley male rats; settings: 1 h; rat, oral, one hour before immobilization; read-out: Anticular activity (ED50, mg/kg p.o.)
Protocol: The anti-ulcerogenic activity of the compounds of the present invention is shown, e.g., by the fact that they are active in the test of the inhibition of restraint ulcers in rats, according to the method of Bonfils et al., (Therapie, 1960, 15, 1096). According to this method the tested compounds were administered per os one hour before the immobilization.
Six Sprague-Dawley male rats (100-120 g), fasted 24 hours, were used for the experiment: a square flexible small-mesh wire netting was used for the immobilization and 4 hours after the immobilization the rats were sacrificed, their stomachs were removed and the lesions counted under a dissecting microscope.

[1] = system: systolic blood pressure (S.B.P.) in SH-rats; experiment: Systolic blood pressure in spontaneously hypertensive rats (indirect tail cuff method); type: in vivo, spontaneously hypertensive rats (SHR, Kyoto)
Protocol: (§1) Indirect measurements of systolic blood pressure were carried out on groups of 4 spontaneously hypertensive rats (SHR, Kyoto), 8-10 weeks of age, supplied by Charles Rives, Italy.
(§2) The animals were maintained in an environment of 36° C. for 10-15 minutes to allow pulse pressure to be recorded and then systolic blood pressure and heart rate were measured by indirect tail cuff method using a W+W, BP recorder, model 8005.
(§3) The compounds were given orally, suspended in 5% arabic gum, once a day for 4 consecutive days and measurements were carried out before beginning the treatment and 1 and 5 hours after dosing in both the first and fourth day of treatment.
(§4) Control animals received the vehicle only (0.2 ml/100 g b.w.). As reference standards, hydralazine (1-5 mg/kg p.o.) and α-methyl-dopa (30-100 mg/kg p.o.) were also tested.
(§5) Drug-induced changes in systolic blood pressure and heart rate were calculated as differences from the pretreatment values.

[2] = system: heart rate (HR) in SH-rats; experiment: Heart rate in spontaneously hypertensive rats (indirect tail cuff method)
Protocol: as §1, §2, §3, §4, §5

[3] = system: syndrome induced by oxotremorine; settings: general statement; cited from earlier work
[4] = 5 mg/kg p.o., 1st day, 1 h post drug
[5] = 5 mg/kg p.o., 1st day, 5 h post drug
[6] = 5 mg/kg p.o., 4th day, 1 h post drug
[7] = 5 mg/kg p.o., 4th day, 5 h post drug
[8] = 1 mg/kg p.o., 1st day, 1 h post drug
[9] = 1 mg/kg p.o., 1st day, 5 h post drug
[10] = 1 mg/kg p.o., 4th day, 1 h post drug
[11] = 1 mg/kg p.o., 4th day, 5 h post drug

CN1C[C@@H](CNC(=S)NC(=O)c2ccccc2)C[C@H]2c3cccc4[nH]cc(c34)C[C@H]21 [Ex 1, 6-Methyl-8α-(3-benzoyl-thioureidomethyl)-10β-ergoline] showed an ED50 (gastric secretion) of 2.5 mg/kg and an ED50 (restraint ulcers) of 4.2 mg/kg.
In the case of CN1C[C@H](CNC(=S)NC(=O)c2ccccc2)C[C@@H]2c3cccc4[nH]cc(c34)C[C@H]21 [Ex 2, 6-Methyl-8β-(3-benzoyl-thioureidomethyl)-ergoline], the ED50 (gastric secretion) is reported as 1.4 mg/kg and the ED50 (restraint ulcers) is reported as 0.7 mg/kg.
With CC(=O)NC(=O)NC[C@@H]1C[C@@H]2c3cccc4[nH]cc(c34)C[C@H]2N(C)C1 [Ex 9, 6-Methyl-8β-(3-acetyl-ureidomethyl)-ergoline] the “Changes in S.B.P” value [1, 4] was -25 ΔmmHg, the “Changes in S.B.P” value [1, 5] was -17 ΔmmHg and the “Changes in S.B.P” value [1, 6] was -57 ΔmmHg. For the same compound, the “Changes in S.B.P” value [1, 7] was -56 ΔmmHg.
Work on CN1C[C@@H](CNC(=O)NC(=O)c2ccccc2)C[C@@H]2c3cccc4[nH]cc(c34)C[C@H]21 [Ex 10, 6-Methyl-8α-(3-benzoyl-ureidomethyl)-ergoline] yielded an ED50 (gastric secretion) of 1 mg/kg and an ED50 (restraint ulcers) of 7 mg/kg.
With CC(=O)NC(=O)NC[C@H]1C[C@@H]2c3cccc4[nH]cc(c34)C[C@H]2N(C)C1 [Ex 26, 6-Methyl-8α-(3-acetyl-ureidomethyl)-ergoline] the “Changes in S.B.P” value [1, 4] was -28 ΔmmHg, the “Changes in S.B.P” value [1, 5] was -60 ΔmmHg and the “Changes in S.B.P” value [1, 6] was -45 ΔmmHg. The “Changes in S.B.P” value [1, 7] was -36 ΔmmHg.
For NNc1nncc2ccccc12 [Hydralazine, hydralazine], the “Changes in S.B.P” value [1, 8] was -5 ΔmmHg, the “Changes in S.B.P” value [1, 9] was -15 ΔmmHg and the “Changes in S.B.P” value [1, 10] was -5 ΔmmHg. For the same compound, the “Changes in S.B.P” value [1, 11] was 0 ΔmmHg, the “Changes in S.B.P” value [1, 4] was -40 ΔmmHg and the “Changes in S.B.P” value [1, 5] was -20 ΔmmHg. The “Changes in S.B.P” value [1, 6] was -20 ΔmmHg, the “Changes in S.B.P” value [1, 7] was -7 ΔmmHg and the “Changes in HR” value [2, 8] was “+30 beats/min”. The “Changes in HR” value [2, 9] was “+35 beats/min”, the “Changes in HR” value [2, 10] was “+25 beats/min” and the “Changes in HR” value [2, 11] was “+15 beats/min”. The “Changes in HR” value [2, 4] was “+40 beats/min”, the “Changes in HR” value [2, 5] was “+45 beats/min” and the “Changes in HR” value [2, 6] was “+18 beats/min”. For the same compound, the “Changes in HR” value [2, 7] was “+15 beats/min” and the “effects on heart rate (in words)” value ([2]; Table 3, SH-rats) was “increase HR”.
In the case of CN1[C@@H]2CC[C@H]1C[C@@H](OC(=O)C(CO)c1ccccc1)C2 (some centres unmarked) [atropine], the “anti-cholinergic activity of known agent” value [3] is given as “remarkable but undesired anti-cholinergic activity”.
For C[C@](N)(Cc1ccc(O)c(O)c1)C(=O)O [α-methyl-DOPA, α-methyl-dopa], the “Changes in S.B.P” value ([1]; 30 mg/kg p.o., 1st day, 1 h post drug) was -10 ΔmmHg, the “Changes in S.B.P” value ([1]; 30 mg/kg p.o., 1st day, 5 h post drug) was -20 ΔmmHg and the “Changes in S.B.P” value ([1]; 30 mg/kg p.o., 4th day, 1 h post drug) was -10 ΔmmHg. The “Changes in S.B.P” value ([1]; 30 mg/kg p.o., 4th day, 5 h post drug) was 0 ΔmmHg, the “Changes in S.B.P” value ([1]; 100 mg/kg p.o., 1st day, 1 h post drug) was -10 ΔmmHg and the “Changes in S.B.P” value ([1]; 100 mg/kg p.o., 1st day, 5 h post drug) was -25 ΔmmHg. For the same compound, the “Changes in S.B.P” value ([1]; 100 mg/kg p.o., 4th day, 1 h post drug) was -20 ΔmmHg, the “Changes in S.B.P” value ([1]; 100 mg/kg p.o., 4th day, 5 h post drug) was -25 ΔmmHg and the “effects on heart rate (in words)” value ([2]; rat, in vivo) was “increase HR”.
